Laboratory results reported in patent publication US20060201053A1, “Barrier preventing wood pest access to wooden structures” (priority 2000, published 2006).
Marks after values point to notes of the source that are not given here.

Experiments:
Type in all cases: physicochemical
[1] = Release rate of pesticides from controlled release devices, one inch squares of 1/8 inch sheets (Example 3)
Source text: Controlled release devices were made and tested to obtain their release rates. All thermoplastic polymers were formulated with 10 percent pesticide, 3 or 7 percent carbon black to absorb liquid pesticide, and 83 to 87 percent by weight of polymer and injection molded into thin sheets about ⅛ inch thick. […] The devices made from the remaining pesticides and thermoplastic polymers contained 7 percent of carbon black.
The devices made from S-113 urethane (a thermoset polymer) were made from a polymer mix containing 60% S-113, 40% castor oil and […] of TIPA catalyst by weight. The polymer mix comprised 90% of the total weight of the device. The pesticide, deltamethrin, comprised the remaining 10% of the device. No carbon black was used in this device. The polymer/pesticide mixture was cast into a ⅛ inch thick sheet and heated at about 60° C. for about 40 to 60 minutes to cure the cast sheet.
One inch squares were then cut from the thin sheets that were injection molded or cast and the squares were tested for release rates.

[2] = Release rate versus lambda cyhalothrin concentration and polymer combination (Example 4)
Description: An experiment was conducted to determine the effect of lambda cyhalothrin (pyrethroid) concentration and insecticide/polymer combination on release rate of insecticide from the polymer.

[3] = Effect of carbon black binding carrier on release rate (Example 6); conditions: active chemical 5 wt. %, high density polyethylene (MA 778-000), 6 weeks after fabrication
Description: Release rates were measured at 6 weeks after fabrication wherein samples were wiped weekly to remove surface accumulation of released active chemical.

[4] = Release rate of lambda cyhalothrin from multi-layer barrier film
Source text: The release rate of bioactive chemicals from the bonding layer 126 to the other layers is greater than the release rate of bioactive chemicals from the barrier film 110 to the exterior of the barrier film 110.

[5] = Thermal decomposition of the pesticide during processing
Description: To have a safety cushion for operating conditions, it is beneficial to have a processing temperature of approximately 150° C.
(§1) The polymers evaluated included low melt polyethylene, polyurethane, two epoxies, silicone rubber, and a low melt polyethylene high in waxes to reduce thermal decomposition of the chlorpyrifos.

[6] = Release rate of pyrethrin from polymer systems (Example 2); conditions: Pyrethrin I content 10%, 40° C.
Description: Studies were also conducted with similar polymer systems as in Example 1 but with 80% pure pyrethrin.

[7] = Release rate of 10 wt. % pyrethroid impregnated polymers (Example 5)
[8] = Release rate of chlorpyrifos from polymer devices (Example 1); conditions: 50° C.
Description: Experiments were conducted to determine the release rate of chlorpyrifos. Loading rates for the insecticide were either 5 wt. % (weight percent) or 10 wt. % depending on the polymer. Release rates were determined for all devices at 50° C.
as §1
Release rates ranged from 10 μg/cm^2/day for the silicone rubber to 0.3 μg/cm^2/day for Epoxy B.

[9] = Polyethylene MA 778-000, 10 percent pesticide
[10] = Polyurethane 2200, 10 percent pesticide
[11] = Polyurethane 3100, 10 percent pesticide

CC1(C)[C@H](C(=O)O[C@H](C#N)c2cccc(Oc3ccccc3)c2)[C@@H]1/C=C(\Cl)C(F)(F)F (racemic) [Lambda cyhalothrin]
Release Rate ([1]; EVA 763, 10 percent pesticide): 27.3 μg/cm^2/day
Release Rate [1, 9]: 4.6 μg/cm^2/day
Release Rate [1, 10]: 0.7 μg/cm^2/day
Release Rate [1, 11]: 0.4 μg/cm^2/day
Pyrethroid Release Rate ([2]; Ethylvinyl Acetate (EVA), pyrethroid 1 wt. %): 0.3 mg/cm^2/da
Pyrethroid Release Rate ([2]; Ethylvinyl Acetate (EVA), pyrethroid 5 wt. %): 2.2 mg/cm^2/da
Pyrethroid Release Rate ([2]; Ethylvinyl Acetate (EVA), pyrethroid 10 wt. %): 2.5 mg/cm^2/da
Pyrethroid Release Rate ([2]; Polyurethane, pyrethroid 1 wt. %): 0.9 mg/cm^2/da
Pyrethroid Release Rate ([2]; Polyurethane, pyrethroid 5 wt. %): 4.4 mg/cm^2/da
Pyrethroid Release Rate ([2]; Polyurethane, pyrethroid 10 wt. %): 8.3 mg/cm^2/da
Pyrethroid Release Rate ([2]; Polyurethane/EVA (50/50), pyrethroid 1 wt. %): 2.6 mg/cm^2/da
Pyrethroid Release Rate ([2]; Polyurethane/EVA (50/50), pyrethroid 5 wt. %): 7.2 mg/cm^2/da
Pyrethroid Release Rate ([2]; Polyurethane/EVA (50/50), pyrethroid 10 wt. %): 9.1 mg/cm^2/da
Release Rate ([3]; carbon black 0 wt. %): 1.78 μg/cm^2/day
Release Rate ([3]; carbon black 10 wt. %): 0.81 μg/cm^2/day
Release Rate ([3]; carbon black 20 wt. %): 0.61 μg/cm^2/day
release rate from barrier film ([4]; preferred eight-layer embodiment): less than 0.002 μg per square centimeter of film per day
release rate from barrier film ([4]; six-layer embodiment): less than 0.002 μg per square centimeter of film per day
temperature above which thermal decomposition and volatilization occurs ([5]; in the manufacturing process): > 160 °C

CC1(C)[C@H](C(=O)O[C@H](C#N)c2cccc(Oc3ccccc3)c2)[C@@H]1C=C(Br)Br [Deltamethrin]
Release Rate ([1]; Alipmtic PS-49-100, 10 percent pesticide): 7.2 μg/cm^2/day
Release Rate ([1]; Aromatic 80A, 10 percent pesticide): 16.8 μg/cm^2/day
Release Rate ([1]; Pellethane 2102-55D, 10 percent pesticide): 8.0 μg/cm^2/day
Release Rate ([1]; Pellethane 2102-80A, 10 percent pesticide): 8.8 μg/cm^2/day
Release Rate ([1]; S-113 urethane, 10% pesticide, no carbon black): 25.2 μg/cm^2/day

C=C/C=C\CC1=C(C)[C@@H](OC(=O)[C@@H]2[C@@H](C=C(C)C)C2(C)C)CC1=O [Pyrethrin I]
Release Rate ([6]; Epoxy A): 0.5 ± 0.2 μg/cm^2/day
Release Rate ([6]; Epoxy B): 0.2 ± 0.1 μg/cm^2/day
Release Rate ([6]; Silicone): 21.2 ± 5.4 μg/cm^2/day
Release Rate ([6]; Urethane): 15.7 ± 7.1 μg/cm^2/day

CC1(C)C(C=C(Cl)Cl)C1C(=O)OC(C#N)c1cccc(Oc2ccccc2)c1 (stereo not shown) [Cypermethrin]
Release Rate ([1]; EVA 763, 10 percent pesticide): 27.3 μg/cm^2/day
Release Rate [1, 9]: 4.6 μg/cm^2/day
Release Rate [1, 10]: 0.7 μg/cm^2/day
Release Rate [1, 11]: 0.4 μg/cm^2/day

Cc1c(F)c(F)c(COC(=O)[C@@H]2[C@H](/C=C(\Cl)C(F)(F)F)C2(C)C)c(F)c1F (racemic) [Tefluthrin]
Release Rate ([1]; EVA 763, 10 percent pesticide): 40.4 μg/cm^2/day
Release Rate [1, 9]: 27.0 μg/cm^2/day
Release Rate [1, 10]: 25.0 μg/cm^2/day
Release Rate [1, 11]: 6.4 μg/cm^2/day
Release Rate ([7]; Ethylvinyl acetate): 4.3 mg/cm^2/da
Release Rate ([7]; Polyethylene): 2.2 mg/cm^2/da
Release Rate ([3]; carbon black 0 wt. %): 3.13 μg/cm^2/day
Release Rate ([3]; carbon black 10 wt. %): 0.71 μg/cm^2/day

CC1(C)C(C=C(Cl)Cl)C1C(=O)OCc1cccc(Oc2ccccc2)c1 (stereo not shown) [Permethrin]
Release Rate ([1]; EVA 763, 10 percent pesticide): 28.5 μg/cm^2/day
Release Rate [1, 9]: 4.0 μg/cm^2/day
Release Rate [1, 10]: 1.3 μg/cm^2/day
Release Rate [1, 11]: 1.4 μg/cm^2/day
Release Rate ([7]; Ethylvinyl acetate): 3.9 mg/cm^2/da
Release Rate ([7]; Polyethylene): 1.4 mg/cm^2/da

CCOP(=S)(OCC)Oc1nc(Cl)c(Cl)cc1Cl [Chlorpyrifos, chlorpyrifos]
Release Rate ([8]; Epoxy A, chlorpyrifos content 5%): <0.1 μg/cm^2/da
Release Rate ([8]; Epoxy B, chlorpyrifos content 10%): 0.3 ± 0.1 μg/cm^2/da
Release Rate ([8]; Epoxy B, chlorpyrifos content 10%, listed as chlorpyrifos): 0.3 μg/cm^2/da
Release Rate ([8]; PE + Wax, chlorpyrifos content 10%): 1.9 ± 0.3 μg/cm^2/da
Release Rate ([8]; Polyurethane, chlorpyrifos content 5%, material exhibited excessive cracking): 2.1 ± 1.4^b μg/cm^2/da
Release Rate ([8]; Silicone, chlorpyrifos content 5%): 10.3 ± 3.5 μg/cm^2/da
Release Rate ([8]; Silicone, chlorpyrifos content 5%, listed as chlorpyrifos): 10 μg/cm^2/da
Release Rate ([8]; Urethane, chlorpyrifos content 10%): 1.0 ± 0.3 μg/cm^2/da
temperature above which excessive thermal decomposition occurred ([5]; polymer processing): > 240 °C
